Here are results for two molecules from ChEMBL document CHEMBL5463729, “Data for DCP probe BAY 1753011” (2023).

For one series, the target named is Vasopressin V2 receptor (Homo sapiens, UniProt P30518). The experiment in a line: Inhibition of Vasopressin V2 at 10 µM in the Eurofins-Panlabs radioligand binding assay (Eurofins_assay_287610). As to conditions: Compound concentration 10.0 uM; call rule not given here. Also on record: ligand concentration 4 nM.
Series [1] addresses Tyrosine-protein kinase ABL1 (Homo sapiens) (UniProt P00519). The experiment in a line: Inhibition of Abl(h) at 10.0 µM in the Eurofins Kinase panel. As to conditions: Compound concentration 10.0 uM.
The target of series [2] is Cyclin-dependent kinase 5/CDK5 activator 1 (Homo sapiens) (UniProt Q00535+Q15078). The experiment in a line: Inhibition of CDK5/p25(h) at 10.0 µM in the Eurofins Kinase panel. In kind it is protein-complex assay. To be noted: Compound concentration 10.0 uM.
Series [3] addresses Cyclin-dependent kinase-like 2 (Homo sapiens) (UniProt Q92772). Kind of series: Inhibition of CDKL2(h) at 10.0 µM in the Eurofins Kinase panel. As to conditions: Compound concentration 10.0 uM.
Series [4] addresses [Pyruvate dehydrogenase (acetyl-transferring)] kinase isozyme 2, mitochondrial (Homo sapiens) (UniProt Q15119). The experiment in a line: Inhibition of PDHK2(h) at 10.0 µM in the Eurofins Kinase panel. To be noted: Compound concentration 10.0 uM.
Series [5] addresses Serine/threonine-protein kinase Sgk2 (Homo sapiens) (UniProt Q9HBY8). Kind of series: Inhibition of SGK2(h) at 10.0 µM in the Eurofins Kinase panel. As to conditions: Compound concentration 10.0 uM.
In series [6] the target is STE20-like serine/threonine-protein kinase (Homo sapiens) (UniProt Q9H2G2). Kind of series: Inhibition of SLK(h) at 10.0 µM in the Eurofins Kinase panel. To be noted: Compound concentration 10.0 uM.
Series [7] concerns the target TRAF2 and NCK-interacting protein kinase (Homo sapiens) (UniProt Q9UKE5). Kind of series: Inhibition of TNIK(h) at 10.0 µM in the Eurofins Kinase panel. As to conditions: Compound concentration 10.0 uM.
For series [8], the target named is Gamma-aminobutyric acid type B receptor subunit 1 (Homo sapiens) (UniProt Q9UBS5). To be noted: Rattus norvegicus; Compound concentration 10.0 uM.
The target of series [9] is Equilibrative nucleoside transporter 1/2/3/4 (Homo sapiens) (UniProt Q99808+Q7RTT9+Q14542+Q9BZD2). As to conditions: Compound concentration 10.0 uM.
The species named for a further series is Rattus norvegicus. The experiment in a line: Inhibition of Glutamate, NMDA, Phencyclidine at 10 µM in the Eurofins-Panlabs radioligand binding assay (Eurofins_assay_233000). Format: protein-complex assay. As to conditions: Compound concentration 10.0 uM.
Series [10] has as its target Neuropeptide Y receptor type 2 (Homo sapiens) (UniProt P49146). The experiment in a line: Inhibition of Neuropeptide Y Y2 at 10 µM in the Eurofins-Panlabs radioligand binding assay (Eurofins_assay_257110). As to conditions: Compound concentration 10.0 uM.
Another series has as its target hERG (KCNH2) (Homo sapiens, UniProt Q12809). Kind of series: Inhibition of Potassium Channel hERG at 10 µM in the Eurofins-Panlabs radioligand binding assay (Eurofins_assay_265900). As to conditions: HEK-293 cells expressing human recombinant hERG, probe [3H] Astemizole, compound concentration 10 uM. Also on record: ligand concentration 1.5 nM, non-specific ligand with concentration Astemizole, incubation time 60 min, incubation temperature 25 °C. On the technique in general: Block of hERG is tested as a sign of cardiac risk.

The species entered for a further series is Sus scrofa. Kind of series: Inhibition of ATPase, Na+/K+, Heart at compound concentration of 10.0 uM in the Eurofins-Panlabs enzyme assay (Eurofins_assay_107710). Set-up: substrate with concentration. As to conditions: Compound concentration 10.0 uM.
Series [11] concerns the target Carbonic anhydrase 2 (Homo sapiens) (UniProt P00918). The experiment in a line: Inhibition of Carbonic Anhydrase II at compound concentration of 10.0 uM in the Eurofins-Panlabs enzyme assay (Eurofins_assay_112020). Set-up: substrate with concentration. To be noted: Compound concentration 10.0 uM.
The species named for a further series is Homo sapiens. The experiment in a line: Inhibition of Phosphodiesterase PDE4 at compound concentration of 10.0 uM in the Eurofins-Panlabs enzyme assay (Eurofins_assay_154000). In kind it is protein assay. Also on record: substrate with concentration 1.01 uM [3 H]cAMP + cAMP, incubation time 20 min, incubation temperature 25 C. As to conditions: Compound concentration 10.0 uM.

In series [12] the target is Mitogen-activated protein kinase 14 (Homo sapiens) (UniProt Q16539). Kind of series: Inhibition of Protein Serine/Threonine Kinase, MAPK14 (p38α) at 10 µM in the Eurofins-Panlabs enzyme assay (Eurofins_assay_176610). Set-up: substrate with concentration. To be noted: Compound concentration 10.0 uM.
The target in series [13] is Thromboxane-A synthase (Homo sapiens) (UniProt P24557). The experiment in a line: Inhibition of Thromboxane Synthase at compound concentration of 10.0 uM in the Eurofins-Panlabs enzyme assay (Eurofins_assay_194020). Set-up: substrate with concentration. As to conditions: Compound concentration 10.0 uM.
Series [14] is described as follows: Inhibition of Atrial Natriuretic Factor (ANF) at 10 µM in the Eurofins-Panlabs radioligand binding assay (Eurofins_assay_211000). As to conditions: Cavia porcellus; Compound concentration 10 uM; Assay protocol publication PMID: 2408776; Detection method Radioligand Binding; Incubation temperature 4 °C; Incubation time 60 min; Ligand Bmax 0.013 pM/ mg protein; Ligand Kd 0.14 nM; Ligand [125I] ANF (rat); Ligand concentration 0.016 nM; Ligand specific binding 78 %; Non-specific ligand with concentration 0.1 µM ANF (rat); Reference compound ANF (rat); Source of ….

Series [15] addresses T1, 5-hydroxytryptamine receptor 3A (Homo sapiens) (UniProt P46098).
T1 sequence (whole entry): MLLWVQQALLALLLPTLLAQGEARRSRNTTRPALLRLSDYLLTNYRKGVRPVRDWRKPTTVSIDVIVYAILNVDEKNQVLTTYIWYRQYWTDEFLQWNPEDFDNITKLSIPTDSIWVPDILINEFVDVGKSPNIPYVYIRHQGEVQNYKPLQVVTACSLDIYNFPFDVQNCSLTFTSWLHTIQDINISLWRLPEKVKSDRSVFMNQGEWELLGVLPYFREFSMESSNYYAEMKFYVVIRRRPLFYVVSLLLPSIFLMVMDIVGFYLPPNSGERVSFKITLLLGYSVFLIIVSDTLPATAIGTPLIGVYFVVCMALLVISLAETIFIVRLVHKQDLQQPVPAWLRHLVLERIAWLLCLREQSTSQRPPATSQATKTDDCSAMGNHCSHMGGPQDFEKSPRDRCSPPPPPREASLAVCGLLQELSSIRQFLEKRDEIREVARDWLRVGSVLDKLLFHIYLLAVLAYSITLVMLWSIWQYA
Kind of series: Inhibition of Serotonin (5-Hydroxytryptamine) 5-HT3 at 10 µM in the Eurofins-Panlabs radioligand binding assay (Eurofins_assay_271910). Also on record: ligand concentration 0.69 nM. As to conditions: Compound concentration 10.0 uM.

Series [16] concerns the target Adenosine Transporter (Cavia porcellus) (UniProt H0V4R7+H0UUG1+H0V3Z5). The experiment in a line: Inhibition of Transporter, Adenosine at compound concentration of 10.0 uM in the Eurofins-Panlabs radioligand binding assay (Eurofins_assay_202000). Format: protein assay. Set-up: ligand concentration 0.5 nM, non-specific ligand with concentration 5 uM Nitrobenzylthioinosine, incubation time 30 min, incubation temperature 25 C. As to conditions: Compound concentration 10.0 uM.

Series [17] addresses Progesterone receptor (Homo sapiens) (UniProt P06401). The experiment in a line: Inhibition of Progesterone PR-B at 10 µM in the Eurofins-Panlabs radioligand binding assay (Eurofins_assay_268020). Also on record: ligand concentration 1.4 nM. As to conditions: Compound concentration 10.0 uM.
Series [18] addresses Calcium/calmodulin-dependent protein kinase type II subunit alpha (Homo sapiens) (UniProt Q9UQM7). Kind of series: Inhibition of CaMKIIalpha(h) at 10.0 µM in the Eurofins Kinase panel. To be noted: Compound concentration 10.0 uM.
In series [19] the target is SRSF protein kinase 2 (Homo sapiens) (UniProt P78362). Kind of series: Inhibition of SRPK2(h) at 10.0 µM in the Eurofins Kinase panel. As to conditions: Compound concentration 10.0 uM.
The target in series [20] is Angiopoietin-1 receptor (Homo sapiens) (UniProt Q02763). The experiment in a line: Inhibition of Tie2(h) at 10.0 µM in the Eurofins Kinase panel. As to conditions: Compound concentration 10.0 uM.
Series [21] has as its target Beta-1 adrenergic receptor (Homo sapiens) (UniProt P08588). As to conditions: Compound concentration 10.0 uM.
Series [22] deals with Acetylcholinesterase (Homo sapiens) (UniProt P22303). To be noted: Compound concentration 10.0 uM.

Structures are written as SMILES.

Beta-1 adrenergic receptor (Homo sapiens), sequence (P08588 whole entry, looked up): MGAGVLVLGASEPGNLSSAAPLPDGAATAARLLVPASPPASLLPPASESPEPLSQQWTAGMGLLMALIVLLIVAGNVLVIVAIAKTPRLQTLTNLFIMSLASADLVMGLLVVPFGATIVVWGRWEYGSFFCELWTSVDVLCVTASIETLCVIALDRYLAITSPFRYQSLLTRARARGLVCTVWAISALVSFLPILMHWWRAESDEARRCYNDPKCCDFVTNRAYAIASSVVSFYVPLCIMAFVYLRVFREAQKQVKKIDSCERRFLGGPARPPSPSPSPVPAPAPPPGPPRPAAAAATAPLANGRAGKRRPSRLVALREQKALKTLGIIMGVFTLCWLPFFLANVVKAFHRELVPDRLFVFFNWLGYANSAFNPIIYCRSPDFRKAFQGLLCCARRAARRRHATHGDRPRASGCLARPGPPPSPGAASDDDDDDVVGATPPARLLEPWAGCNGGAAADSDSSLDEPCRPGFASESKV
Neuropeptide Y receptor type 2 (Homo sapiens), sequence (P49146 whole entry): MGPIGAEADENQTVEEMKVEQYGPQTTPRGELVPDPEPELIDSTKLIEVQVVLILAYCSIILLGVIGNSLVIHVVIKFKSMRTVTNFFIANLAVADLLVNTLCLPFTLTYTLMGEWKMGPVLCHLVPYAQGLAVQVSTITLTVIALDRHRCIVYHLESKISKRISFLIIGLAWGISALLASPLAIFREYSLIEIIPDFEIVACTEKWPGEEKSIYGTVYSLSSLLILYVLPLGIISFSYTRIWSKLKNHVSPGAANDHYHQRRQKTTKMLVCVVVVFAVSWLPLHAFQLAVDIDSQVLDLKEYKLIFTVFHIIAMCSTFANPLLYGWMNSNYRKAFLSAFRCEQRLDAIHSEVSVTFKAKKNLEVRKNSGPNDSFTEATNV
Calcium/calmodulin-dependent protein kinase type II subunit alpha (Homo sapiens), sequence (Q9UQM7 whole entry): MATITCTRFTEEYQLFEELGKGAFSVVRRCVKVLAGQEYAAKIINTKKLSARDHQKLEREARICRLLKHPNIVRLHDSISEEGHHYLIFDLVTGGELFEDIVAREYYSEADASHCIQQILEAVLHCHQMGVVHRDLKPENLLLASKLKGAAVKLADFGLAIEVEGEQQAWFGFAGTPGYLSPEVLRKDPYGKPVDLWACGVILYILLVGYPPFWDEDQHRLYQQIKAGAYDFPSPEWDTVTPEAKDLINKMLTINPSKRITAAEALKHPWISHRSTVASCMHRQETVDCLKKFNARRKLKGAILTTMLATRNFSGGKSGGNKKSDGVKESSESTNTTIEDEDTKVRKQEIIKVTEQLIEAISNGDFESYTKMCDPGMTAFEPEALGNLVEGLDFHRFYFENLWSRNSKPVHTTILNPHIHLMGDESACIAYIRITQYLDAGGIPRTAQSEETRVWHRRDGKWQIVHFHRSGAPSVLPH
Tyrosine-protein kinase ABL1 (Homo sapiens), sequence (P00519 whole entry): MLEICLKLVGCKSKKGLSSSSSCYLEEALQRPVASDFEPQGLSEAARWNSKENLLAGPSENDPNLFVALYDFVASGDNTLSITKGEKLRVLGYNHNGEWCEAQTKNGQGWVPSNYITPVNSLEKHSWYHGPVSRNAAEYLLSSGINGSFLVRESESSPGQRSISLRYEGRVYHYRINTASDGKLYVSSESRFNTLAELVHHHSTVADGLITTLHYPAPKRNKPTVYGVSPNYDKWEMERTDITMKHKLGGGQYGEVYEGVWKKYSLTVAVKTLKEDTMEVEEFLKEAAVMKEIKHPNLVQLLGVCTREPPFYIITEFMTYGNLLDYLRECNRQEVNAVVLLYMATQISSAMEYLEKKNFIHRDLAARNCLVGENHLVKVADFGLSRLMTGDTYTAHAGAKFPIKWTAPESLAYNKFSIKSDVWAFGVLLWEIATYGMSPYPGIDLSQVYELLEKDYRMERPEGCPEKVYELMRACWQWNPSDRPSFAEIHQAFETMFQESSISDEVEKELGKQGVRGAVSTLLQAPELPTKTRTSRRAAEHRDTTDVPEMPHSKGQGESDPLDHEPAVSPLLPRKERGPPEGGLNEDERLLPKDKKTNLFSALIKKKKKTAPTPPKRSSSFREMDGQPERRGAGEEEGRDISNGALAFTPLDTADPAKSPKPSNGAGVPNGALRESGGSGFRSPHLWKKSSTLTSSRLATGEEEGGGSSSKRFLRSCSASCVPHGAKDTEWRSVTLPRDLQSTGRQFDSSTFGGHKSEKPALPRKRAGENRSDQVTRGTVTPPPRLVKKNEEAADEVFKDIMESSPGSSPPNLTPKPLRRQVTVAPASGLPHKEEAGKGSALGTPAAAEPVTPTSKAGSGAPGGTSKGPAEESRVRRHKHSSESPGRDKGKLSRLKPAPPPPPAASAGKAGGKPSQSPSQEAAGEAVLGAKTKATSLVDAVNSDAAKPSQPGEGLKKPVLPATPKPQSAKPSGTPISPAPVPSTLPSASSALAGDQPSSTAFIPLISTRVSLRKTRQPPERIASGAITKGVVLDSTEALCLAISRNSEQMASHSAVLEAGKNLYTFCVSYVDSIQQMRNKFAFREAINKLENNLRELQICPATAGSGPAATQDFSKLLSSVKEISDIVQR
Angiopoietin-1 receptor (Homo sapiens), sequence (Q02763 whole entry): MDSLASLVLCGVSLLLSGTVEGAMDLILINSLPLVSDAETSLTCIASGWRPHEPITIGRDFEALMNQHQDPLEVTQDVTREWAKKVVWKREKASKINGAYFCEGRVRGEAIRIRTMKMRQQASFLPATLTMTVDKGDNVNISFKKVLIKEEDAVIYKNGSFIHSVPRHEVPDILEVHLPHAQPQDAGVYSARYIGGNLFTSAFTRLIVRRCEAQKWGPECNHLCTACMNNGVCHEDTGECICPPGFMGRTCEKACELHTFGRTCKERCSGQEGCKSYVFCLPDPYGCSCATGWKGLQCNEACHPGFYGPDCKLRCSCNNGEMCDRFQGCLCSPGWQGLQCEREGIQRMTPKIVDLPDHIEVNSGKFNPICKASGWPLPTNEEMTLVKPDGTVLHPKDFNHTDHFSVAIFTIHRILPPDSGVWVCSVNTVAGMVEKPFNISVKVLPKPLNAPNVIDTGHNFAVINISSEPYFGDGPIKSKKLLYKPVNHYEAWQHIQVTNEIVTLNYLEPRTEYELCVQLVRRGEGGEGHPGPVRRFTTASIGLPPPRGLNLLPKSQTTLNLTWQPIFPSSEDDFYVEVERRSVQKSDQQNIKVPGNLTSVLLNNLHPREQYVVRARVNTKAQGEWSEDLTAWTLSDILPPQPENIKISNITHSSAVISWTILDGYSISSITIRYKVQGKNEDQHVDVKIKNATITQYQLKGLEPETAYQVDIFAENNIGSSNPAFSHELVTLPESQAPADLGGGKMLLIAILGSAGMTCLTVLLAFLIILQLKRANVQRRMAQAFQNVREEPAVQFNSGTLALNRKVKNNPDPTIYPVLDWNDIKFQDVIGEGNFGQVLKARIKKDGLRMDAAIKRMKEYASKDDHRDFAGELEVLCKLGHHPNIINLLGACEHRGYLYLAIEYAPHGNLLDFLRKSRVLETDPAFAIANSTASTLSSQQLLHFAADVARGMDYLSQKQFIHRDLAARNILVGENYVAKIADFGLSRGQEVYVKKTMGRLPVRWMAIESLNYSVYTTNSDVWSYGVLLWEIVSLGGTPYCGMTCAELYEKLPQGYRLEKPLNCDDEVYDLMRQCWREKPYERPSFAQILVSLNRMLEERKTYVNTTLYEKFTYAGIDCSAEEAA
SRSF protein kinase 2 (Homo sapiens), sequence (P78362 whole entry, looked up): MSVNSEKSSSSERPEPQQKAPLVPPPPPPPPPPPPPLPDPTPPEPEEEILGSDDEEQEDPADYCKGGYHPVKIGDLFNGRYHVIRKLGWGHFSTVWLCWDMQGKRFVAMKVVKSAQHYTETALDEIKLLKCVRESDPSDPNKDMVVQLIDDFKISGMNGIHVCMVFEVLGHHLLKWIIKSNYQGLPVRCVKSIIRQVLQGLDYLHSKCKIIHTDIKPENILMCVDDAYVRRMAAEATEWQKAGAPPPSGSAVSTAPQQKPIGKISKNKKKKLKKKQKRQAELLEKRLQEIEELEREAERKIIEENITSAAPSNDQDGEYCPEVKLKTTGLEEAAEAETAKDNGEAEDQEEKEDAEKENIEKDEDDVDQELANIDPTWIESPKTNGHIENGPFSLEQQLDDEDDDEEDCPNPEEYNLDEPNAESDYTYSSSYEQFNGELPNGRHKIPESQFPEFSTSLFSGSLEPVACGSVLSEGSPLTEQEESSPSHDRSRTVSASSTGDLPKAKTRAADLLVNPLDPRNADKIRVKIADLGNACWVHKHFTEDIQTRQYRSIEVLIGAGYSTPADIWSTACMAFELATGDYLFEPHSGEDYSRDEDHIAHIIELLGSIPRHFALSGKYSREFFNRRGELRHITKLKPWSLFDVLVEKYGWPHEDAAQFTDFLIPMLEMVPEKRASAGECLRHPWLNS
Cyclin-dependent kinase 5/CDK5 activator 1 (Homo sapiens), sequence (Q00535 whole entry): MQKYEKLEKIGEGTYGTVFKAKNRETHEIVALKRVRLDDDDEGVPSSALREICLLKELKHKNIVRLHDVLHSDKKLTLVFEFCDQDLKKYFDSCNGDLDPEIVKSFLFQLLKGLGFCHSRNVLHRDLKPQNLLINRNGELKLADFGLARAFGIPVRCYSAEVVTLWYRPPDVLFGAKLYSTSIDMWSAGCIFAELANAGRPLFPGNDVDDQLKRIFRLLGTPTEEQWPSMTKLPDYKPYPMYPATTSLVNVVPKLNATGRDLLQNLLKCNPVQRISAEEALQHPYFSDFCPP
Cyclin-dependent kinase 5/CDK5 activator 1 (Homo sapiens), sequence (Q15078 99-307 partner limits assumed): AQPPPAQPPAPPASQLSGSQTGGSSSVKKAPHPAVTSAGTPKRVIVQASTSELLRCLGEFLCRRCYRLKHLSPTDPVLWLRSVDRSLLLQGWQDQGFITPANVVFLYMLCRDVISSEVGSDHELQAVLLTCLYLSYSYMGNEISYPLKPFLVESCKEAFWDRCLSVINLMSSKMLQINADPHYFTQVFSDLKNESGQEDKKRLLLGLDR

What is called inhibition is the drop in the measured response relative to a control, in per cent. For `O=c1n(Cc2cncn2-c2cccc(Cl)c2)nc(-c2ccc(Cl)cc2)n1C[C@H](O)C(F)(F)F`, the inhibition on Vasopressin V2 receptor is 29%; in series [1] it was -3.62%; in series [2] it was 2.09%; in series [3] it was -7.41%; in series [4] it was -4.87%; in series [5], -3.39%. For the same molecule, the inhibition in [6] was 0.22%; in series [7], -7.62%; in series [8], 8%; in series [9], 10%.

As to `C[C@H](O)c1nc(Cn2nc(-c3ccc(Cl)cc3)n(C[C@H](O)C(F)(F)F)c2=O)nn1-c1cccc(Cl)c1` [PECAVAPTAN], the inhibition in the series listed under Rattus norvegicus was 14%; in series [10], 6%; in the series filed under Sus scrofa it was 0%; in series [11], -4%; in the series listed under Homo sapiens, -4%; in series [12], -1%. Also, the inhibition in [13] was -6%; in series [15], -2%; in series [16] it was 21%; in [17], 0%; in [18], -6.92%; in series [19], -4.81%. In addition, the inhibition in series [20] was -8.17%; in series [21], -7.44%; in series [22], 2%. Also, the inhibition at 60 min, 10 µM on hERG (KCNH2) is -3% (not active). Further, the inhibition at 10 µM in series [14] was 1% (not active).
